Measurements reported in US10988477B2 (Merck Patent GmbH, priority 2018, dated 2021).
Like-named read-outs stand apart in the source and are kept apart here.

What was measured:
[1] = target: intracellular GCN2 (phosphorylation of the GCN2 substrate eIF2α) (Homo sapiens, UniProt Q9P2K8); assay: GCN2 cellular inhibition assay (AlphaScreen SureFire P-eIF2α Ser51, borrelidin-treated U2OS cells); format: cell-based
Summary of the method: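 U2OS cells adhered overnight, then treated with compounds (4-fold serial dilutions from 40 μM final) plus borrelidin 10 μM final for 1 h at 37 °C. Lysate eIF2α Ser51 phosphorylation measured by AlphaScreen SureFire. Percent inhibition calculated relative to borrelidin-only wells.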

GCN2 kinase = GCN2 kinase (Homo sapiens, UniProt Q9P2K8); assay: GCN2 enzyme inhibition assay (Transcreener ADP2 fluorescence polarization); format: biochemical; details: 280 μM ATP
GCN2 kinase, sequence (Q9P2K8 whole entry): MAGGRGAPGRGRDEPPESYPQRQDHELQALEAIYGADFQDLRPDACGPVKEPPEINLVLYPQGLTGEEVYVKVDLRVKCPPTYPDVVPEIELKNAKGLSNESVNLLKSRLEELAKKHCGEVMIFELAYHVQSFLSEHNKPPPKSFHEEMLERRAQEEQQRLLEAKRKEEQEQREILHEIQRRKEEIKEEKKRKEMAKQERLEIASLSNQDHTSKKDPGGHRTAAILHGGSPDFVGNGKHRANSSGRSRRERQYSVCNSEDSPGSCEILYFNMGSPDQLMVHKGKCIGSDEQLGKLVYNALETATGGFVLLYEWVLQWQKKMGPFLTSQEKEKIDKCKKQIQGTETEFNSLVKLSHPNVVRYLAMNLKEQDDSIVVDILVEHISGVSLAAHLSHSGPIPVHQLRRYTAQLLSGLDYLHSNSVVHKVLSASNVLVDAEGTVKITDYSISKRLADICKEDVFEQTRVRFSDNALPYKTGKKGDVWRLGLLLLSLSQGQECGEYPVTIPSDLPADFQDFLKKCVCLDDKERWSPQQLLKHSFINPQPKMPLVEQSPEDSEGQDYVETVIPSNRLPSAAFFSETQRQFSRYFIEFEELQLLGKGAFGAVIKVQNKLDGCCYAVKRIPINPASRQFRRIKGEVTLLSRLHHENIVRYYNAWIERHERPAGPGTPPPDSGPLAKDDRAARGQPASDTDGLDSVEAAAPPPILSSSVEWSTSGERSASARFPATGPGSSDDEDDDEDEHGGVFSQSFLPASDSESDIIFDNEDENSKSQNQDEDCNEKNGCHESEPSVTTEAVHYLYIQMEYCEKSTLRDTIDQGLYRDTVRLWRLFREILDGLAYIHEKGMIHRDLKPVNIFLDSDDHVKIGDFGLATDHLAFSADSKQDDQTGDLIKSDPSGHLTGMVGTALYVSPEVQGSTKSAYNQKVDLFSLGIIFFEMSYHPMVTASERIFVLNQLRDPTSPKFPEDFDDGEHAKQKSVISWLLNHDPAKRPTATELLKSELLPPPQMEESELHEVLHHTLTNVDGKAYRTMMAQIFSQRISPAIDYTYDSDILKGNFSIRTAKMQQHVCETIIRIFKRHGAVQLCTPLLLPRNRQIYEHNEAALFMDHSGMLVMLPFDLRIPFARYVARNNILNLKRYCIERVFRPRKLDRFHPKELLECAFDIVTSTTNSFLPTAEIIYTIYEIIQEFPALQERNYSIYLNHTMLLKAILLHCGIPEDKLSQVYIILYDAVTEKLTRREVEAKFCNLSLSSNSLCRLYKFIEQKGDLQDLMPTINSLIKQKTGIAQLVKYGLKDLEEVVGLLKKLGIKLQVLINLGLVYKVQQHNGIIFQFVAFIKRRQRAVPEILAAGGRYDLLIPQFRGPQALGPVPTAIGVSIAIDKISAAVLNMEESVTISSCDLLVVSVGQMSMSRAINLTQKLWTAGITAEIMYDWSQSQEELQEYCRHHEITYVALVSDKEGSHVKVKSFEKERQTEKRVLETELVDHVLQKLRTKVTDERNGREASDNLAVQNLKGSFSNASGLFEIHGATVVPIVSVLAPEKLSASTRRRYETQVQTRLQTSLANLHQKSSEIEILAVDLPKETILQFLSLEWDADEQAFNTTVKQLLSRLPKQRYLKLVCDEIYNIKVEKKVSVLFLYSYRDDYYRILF
Summary of the method: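 Human GCN2 (4 nM) preincubated 10 min with compound (0–8 μM) and 200 μM (RS)7 peptide in Tris-HCl pH 7.5, NaCl, MgCl2, DTT. Reaction started with 280 μM ATP, run 1 h at 25 °C. ADP detected by Transcreener fluorescence polarization. IC50 and Ki(app) fitted by tight-binding algorithm.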

[2] = compounds of Formula II, biomarker assay, phosphorylated eIF2α Ser51 in borrelidin-treated U2OS cells
[3] = compounds of Formula II, 4 nM GCN2 kinase
[4] = compounds of Formula IV, biomarker assay, phosphorylated eIF2α Ser51 in borrelidin-treated U2OS cells
[5] = Enzyme activity for compounds of Formula IV, Ki(app), 25° C.

intracellular GCN2 (phosphorylation of the GCN2 substrate eIF2α), sequence (Q9P2K8 whole entry): as above

Row | IC50 [1, 2] | Ki (GCN2 kinase; [3]) | SMILES | further results
1 | 500 to 5000 nM | 10 to 1000 nM | O=C1OCC2CN(c3cc(-c4cnc5ccc(C(F)F)nn45)ccn3)CCN12 (stereo not shown) [II-88, 7-(4-(6-(Difluoromethyl)imidazo[1,2-b]pyridazin-3-yl)pyridin-2-yl)tetrahydro-1H-oxazolo[3,4-a]pyrazin-3(5H)-one] | 
2 | 500 to 5000 nM | 10 to 1000 nM | CC1(CNS(C)(=O)=O)CCCN(c2cc(-c3cnc4ccc(C(F)F)nn34)ccn2)C1 (stereo not shown) [II-115, N-((1-(4-(6-(Difluoromethyl)imidazo[1,2-b]pyridazin-3-yl)pyridin-2-yl)-3-methylpiperidin-3-yl)methyl)methanesulfonamide] | 
3 | > 5000 nM | 10 to 1000 nM | CC(=O)N1CCN(c2cc(-c3cnc4ccc(C(F)F)nn34)ncn2)C(C)C1 (stereo not shown) [II-368, 1-(4-(6-(6-(Difluoromethyl)imidazo[1,2-b]pyridazin-3-yl)pyrimidin-4-yl)-3-methylpiperazin-1-yl)ethan-1-one] | 
4 | 500 to 5000 nM | 10 to 1000 nM | CC1C(CNS(C)(=O)=O)CCCN1c1cc(-c2cnc3ccc(C(F)F)nn23)ncn1 (single isomer, unassigned) [II-263, N-((1-(6-(6-(Difluoromethyl)imidazo[1,2-b]pyridazin-3-yl)pyrimidin-4-yl)-2-methylpiperidin-3-yl)methyl)methanesulfonamide] | 
5 |  |  | CC1C(c2cn[nH]c2)NCCN1c1ccnc(-c2cnc3cnccn23)n1 (stereo not shown) [IV-397, 3-(4-(2-Methyl-3-(1H-pyrazol-4-yl)piperazin-1-yl)pyrimidin-2-yl)imidazo[1,2-a]pyrazine] | IC50 [1, 4]: > 5000 nM; Ki (GCN2 kinase; [5]): 100 to 1000 nM
6 | > 5000 nM | > 1000 nM | CC(=O)N1CCN(c2cc(-c3cnc4ccc(-c5cccnc5)nn34)ccn2)CC1 [II-737, 1-(4-(4-(6-(pyridin-3-yl)imidazo[1,2-b]pyridazin-3-yl)pyridin-2-yl)piperazin-1-yl)ethan-1-one] | 
7 |  |  | CC1CC(CS(C)(=N)=O)C(C)N(c2ccnc(-c3cnc4sc(C(F)(F)F)cn34)n2)C1 (stereo not shown) [Compound V-16, ((2,5-Dimethyl-1-(2-(2-(trifluoromethyl)imidazo[2,1-b]thiazol-5-yl)pyrimidin-4-yl)piperidin-3-yl)methyl)(imino)(methyl)-λ^6-sulfanone] | IC50 ([1]; compounds of Formula V, U2OS cells, 10 μM borrelidin, 1 h, read-out: GCN2 Biomarker (IC50)): > 5000 nM; Ki (GCN2 kinase; compounds of Formula V, 4 nM GCN2 kinase): 100 to 1000 nM
8 | 500 to 5000 nM | < 10 nM | COCCNc1cc(-c2cnc3ccc(C(F)F)nn23)cc(N2CCCC(CNS(C)(=O)=O)C2)n1 (stereo not shown) [II-89, N-((1-(4-(6-(Difluoromethyl)imidazo[1,2-b]pyridazin-3-yl)-6-((2-methoxyethyl)amino)pyridin-2-yl)piperidin-3-yl)methyl)methanesulfonamide] | 
9 | < 500 nM | 10 to 1000 nM | CS(C)(=O)=N[C@H]1CCCN(c2cc(-c3cnc4ccc(C(F)F)nn34)ncn2)C1 (single isomer, unassigned) [II-502] | 
10 | > 5000 nM | 10 to 1000 nM | O=C1CN(c2cc(-c3cnc4ccc(C(F)F)nn34)ccn2)CCN1 [II-62, 4-(4-(6-(Difluoromethyl)imidazo[1,2-b]pyridazin-3-yl)pyridin-2-yl)piperazin-2-one] | 
11 |  |  | O=C(c1cccc(-c2ccnc(-c3cnc4cnc(C(F)F)cn34)n2)c1)N1CCNCC1 [IV-150, (3-(2-(6-(Difluoromethyl)imidazo[1,2-a]pyrazin-3-yl)pyrimidin-4-yl)phenyl)(piperazin-1-yl)methanone] | IC50 [1, 4]: > 5000 nM; Ki (GCN2 kinase; [5]): 100 to 1000 nM
12 | > 5000 nM | 10 to 1000 nM | OC[C@@H]1CN(c2cc(-c3cnc4ccc(C(F)F)nn34)ccn2)CCN1 [II-169, (S)-(4-(4-(6-(Difluoromethyl)imidazo[1,2-b]pyridazin-3-yl)pyridin-2-yl)piperazin-2-yl)methanol] | 
13 |  |  | N#Cc1cccc(C(=O)N[C@H]2CCCN(c3ccnc(-c4cnc5cnc(C(F)(F)F)cn45)n3)C2)c1 [IV-741] | IC50 [1, 4]: > 5000 nM; Ki (GCN2 kinase; [5]): > 1000 nM
14 | < 500 nM | < 10 nM | CC1CN(c2cc(-c3cnc4ccc(C(F)F)nn34)ncn2)CC(CNS(C)(=O)=O)=C1F (stereo not shown) [II-537, N-((1-(6-(6-(Difluoromethyl)imidazo[1,2-b]pyridazin-3-yl)pyrimidin-4-yl)-4-fluoro-5-methyl-1,2,5,6-tetrahydropyridin-3-yl)methyl)methanesulfonamide] | 
